Here are results for 38 molecules from article PMC6728359, “Crystal structure and chemical inhibition of essential schistosome host-interactive virulence factor carbonic anhydrase SmCA” (Communications Biology, 2019).

Like-named read-outs stand apart in the source and are kept apart here. Some results are limits rather than exact numbers.

Assay [1] addresses rSmCA (recombinant SmCA, α-carbonic anhydrase) (Schistosoma mansoni, UniProt A0A3Q0KSG2). Kind of assay: biochemical. It counts as biochemical.
Assay [2] concerns the target recombinant human isoform hCA I. The settings on record: cited from earlier work.
Assay [3] has as its target recombinant human isoform hCA II. The settings on record: cited from earlier work.

Chain of rSmCA (recombinant SmCA, α-carbonic anhydrase) (A0A3Q0KSG2 21-298 limits assumed): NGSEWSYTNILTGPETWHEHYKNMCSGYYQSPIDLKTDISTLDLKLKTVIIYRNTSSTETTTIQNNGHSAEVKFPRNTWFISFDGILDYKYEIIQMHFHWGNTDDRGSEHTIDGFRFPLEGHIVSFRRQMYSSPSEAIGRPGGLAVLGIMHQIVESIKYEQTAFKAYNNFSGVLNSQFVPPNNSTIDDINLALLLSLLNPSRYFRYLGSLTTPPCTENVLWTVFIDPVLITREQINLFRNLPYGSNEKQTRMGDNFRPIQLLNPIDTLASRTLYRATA

On to CF3SO3^−, for which, in assay [1] (read-out: Ki SmCA), the Ki was 5.62 mM. For `N#C[SeH]` [SeCN^−], the inhibition constant (Ki) in assay [1] (read-out: Ki SmCA) was 2.16 mM; in assay [2] it was 0.085 mM.

Consider `O=S(O)O` [HSO3^−], for which the inhibitory constant (Ki) was over 100 mM in assay [1] (read-out: Ki SmCA) and 18 mM in assay [2].

For the molecule `O=C1NS(=O)(=O)c2ccccc21` [SAC, saccharin], the inhibition constant (Ki) in assay [1] is over 0.05 mM; in assay [2] (read-out: Ki hCAI), 0.0185 mM. On to `NS(=O)(=O)c1nnc(NS(=O)(=O)c2ccccc2)s1` [BZA, benzolamide], for which the Ki in assay [1] was 3.41e-05 mM.

For the molecule `[N-]=[N+]=[N-]` [N3^−, azide], in assay [1] (read-out: Ki SmCA), the Ki turned out to be 2.43 mM.

Consider `O=[Se](=O)(O)O` [SeO4^2−], for which the inhibition constant Ki in assay [1] (read-out: Ki SmCA) amounted to 6.33 mM. In the case of `NS(N)(=O)=O` [H 2 NSO 2 NH 2, sulfamide], in assay [1], the “greater potency over SmCA versus hCA I” value was 44 fold and the “greater potency over SmCA versus hCA II” value was found to be 161 fold. Besides, the inhibitory constant (Ki) in assay [1] (read-out: Ki SmCA) amounted to 0.007 mM. Regarding `O=[Te](=O)(O)O` [TeO4^2−], the Ki in assay [1] (read-out: Ki SmCA) is over 100 mM; in assay [2] it was 0.66 mM. For `NS(=O)(=O)Cc1noc2ccccc12` [ZNS, zonisamide], the inhibition constant Ki in assay [1] stood at 0.000937 mM. Take `[O]=[Ru](=[O])(=[O])=[O]` [RuO4^−]: in assay [1] (read-out: Ki SmCA), the Ki was found to be 2.07 mM. For `CCN(CC)C(=S)S` [Et2NCS2^−], the inhibitory constant (Ki) in assay [1] (read-out: Ki SmCA) is 0.59 mM; in assay [3], 0.0031 mM; in assay [2], 0.0008 mM. Turning to `[O-][Cl+3]([O-])([O-])O` [ClO4^−, perchlorate], the Ki in assay [1] (read-out: Ki SmCA) is over 100 mM. With `OB(O)c1ccccc1` [Ph-B(OH) 2, phenylboronic acid], the values for the Ki in assay [1] and in assay [2] were 0.02 mM and 58.6 mM, respectively. Besides, the “higher affinity for SmCA versus human isoforms hCA I or hCA II” value in assay [1] is reported as over 1000 fold. As to SO4^2−, in assay [1] (read-out: Ki SmCA), the Ki came to 6.86 mM. Regarding `CC1(C)O[C@@H]2[C@@H](CO[C@@]3(COS(N)(=O)=O)OC(C)(C)O[C@@H]23)O1` [TPM, topiramate], the values for the Ki in assay [1] and in assay [3] (read-out: Ki hCAII) were 0.000568 mM and 1e-05 mM, respectively. Take CS3^2−: the Ki in assay [1] (read-out: Ki SmCA) was 6.16 mM; in assay [2], 0.0087 mM. For the molecule `O=S(=O)(O)F` [FSO3^−], in assay [1] (read-out: Ki SmCA), the Ki turned out to be 6.02 mM. For `F` [F^−, fluoride], the Ki in assay [1] (read-out: Ki SmCA) was 6.44 mM. For `O=[As](O)(O)c1ccccc1` [Ph-AsO 3 H 2, phenylarsonic acid], the figures for the Ki in assay [3] and in assay [2] were 49.2 mM and 31.7 mM, respectively.

As to `Cc1onc(-c2ccccc2)c1-c1ccc(S(N)(=O)=O)cc1` [VLX, valdecoxib], the Ki in assay [1] came out at 0.000431 mM. `[O]=[Re](=[O])(=[O])[OH]` [ReO4^−]: the inhibitory constant (Ki) in assay [1] (read-out: Ki SmCA) was 8.75 mM.

On to `S` [HS^−, hydrosulfide], for which the inhibition constant Ki in assay [1] (read-out: Ki SmCA) is 5.96 mM; in assay [2], 0.0006 mM. For `N#CS` [SCN−, thiocyanate], in assay [1] (read-out: Ki SmCA), the inhibition constant (Ki) amounted to 3.15 mM. On the same count and under the same terms, in the case of `[O]=[Sn]([OH])[OH]` [SnO3^2−] it was 4.11 mM. With `[Br-].[K+]` [Br−, bromide], the figures for the Ki in assay [1] (read-out: Ki SmCA), in assay [3] and in assay [2] were 9.35 mM, 63 mM and 4 mM, respectively. On to `NS(=O)(=O)c1ccc(N2CCCCS2(=O)=O)cc1` [SLT, sulthiame], for which the Ki in assay [1] was found to be 0.00356 mM. For the molecule `NS(=O)(=O)c1ccc(S(=O)(=O)Nc2cccc3c(Cl)c[nH]c23)cc1` [IND, indisulam], in assay [1], the Ki is 3.65e-05 mM. With `I` [I^−, iodide], the Ki in assay [1] (read-out: Ki SmCA) was 5.11 mM; in assay [2], 0.3 mM.

Turning to `CCN[C@H]1CN(CCCOC)S(=O)(=O)c2sc(S(N)(=O)=O)cc21` [BRZ, brinzolamide], the Ki in assay [1] was 4.66e-05 mM. Turning to `NS(=O)(=O)c1cc2c(cc1Cl)NCNS2(=O)=O` [HCT, hydrochlorothiazide], the Ki in assay [1] was determined as 0.000399 mM.

As to OsO5^2−, in assay [1] (read-out: Ki SmCA), the Ki was 7.55 mM. Same read-out and setting: to S2O8^2− belongs 7.85 mM.

On to `O=[N+]([O-])O` [NO3−, nitrate], for which the inhibitory constant (Ki) in assay [1] (read-out: Ki SmCA) was 7.87 mM; in assay [2], 7 mM.

For the molecule `O=C(O)O` [HCO3−], in assay [1] (read-out: Ki SmCA), the Ki was 5.1 mM. Turning to `CC(=O)/N=c1/sc(S(N)(=O)=O)nn1C` [MZA, methazolamide], the Ki in assay [1] turned out to be 3.89e-05 mM.

Turning to `N#CO` [CNO^−, cyanate], the Ki in assay [1] (read-out: Ki SmCA) is 4.18 mM. Take P2O7^4−: the Ki in assay [1] (read-out: Ki SmCA) was over 100 mM; in assay [2], 25.8 mM.

A word on the Ki: it is a dissociation constant, usually derived from enzyme kinetics or from competition with a known ligand.
